In US20180325869A1, “TARGETING OF THE FORMYL-PEPTIDE RECEPTOR 2/LIPOXIN A4 RECEPTOR (FPR2/ALX) FOR TREATMENT OF HEART DISEASE” (BRISTOL-MYERS SQUIBB COMPANY, priority 2015, published 2018):
pEC50, pIC50: −log10 of the molar value.

Columns and labels:
mFPR2/ALX = molecular target: T1, mFPR2/ALX (Mus musculus, UniProt O88536); assay: cAMP assay in CHO-A12 cell line over-expressing mouse mFPR2; assay type: cell-based; settings: CHO-A12 cells over-expressing mFPR2; read-out: potency as activator of mFPR2/ALX
T1 construct: expressed in transfected cells; host or cells: CHO-A12
T1 sequence (O88536 1-351): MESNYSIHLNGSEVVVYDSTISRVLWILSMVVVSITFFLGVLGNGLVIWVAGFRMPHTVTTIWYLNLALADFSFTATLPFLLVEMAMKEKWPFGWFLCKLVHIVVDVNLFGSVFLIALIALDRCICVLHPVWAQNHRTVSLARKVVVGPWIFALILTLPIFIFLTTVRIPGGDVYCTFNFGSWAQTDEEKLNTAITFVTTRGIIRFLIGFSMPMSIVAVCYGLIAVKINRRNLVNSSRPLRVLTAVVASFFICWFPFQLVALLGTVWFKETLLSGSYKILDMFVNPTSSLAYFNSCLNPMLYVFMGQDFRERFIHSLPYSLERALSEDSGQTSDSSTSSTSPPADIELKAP

mFPR3 = molecular target: T2, mFPR3 (Mus musculus, UniProt O08790); assay: cAMP assay in CHO-A12 cell line over-expressing mouse mFPR3; assay type: cell-based; settings: CHO-A12 cells over-expressing mFPR3; read-out: activity against mFPR3
T2 construct: expressed in transfected cells; host or cells: CHO-A12
T2 sequence (O08790 1-351): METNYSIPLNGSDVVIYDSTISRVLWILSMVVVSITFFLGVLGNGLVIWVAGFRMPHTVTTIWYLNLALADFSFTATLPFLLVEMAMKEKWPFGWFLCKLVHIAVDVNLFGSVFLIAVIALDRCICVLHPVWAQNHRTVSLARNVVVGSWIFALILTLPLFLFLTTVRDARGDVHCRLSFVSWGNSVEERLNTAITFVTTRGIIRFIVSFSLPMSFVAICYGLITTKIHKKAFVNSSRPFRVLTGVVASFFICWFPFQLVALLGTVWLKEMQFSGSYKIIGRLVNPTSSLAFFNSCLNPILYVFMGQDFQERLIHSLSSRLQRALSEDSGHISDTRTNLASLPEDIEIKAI

mFPR1 receptor = molecular target: T3, mFPR1 receptor (Mus musculus, UniProt P33766); assay: Functional assay with mFPR1 receptor; assay type: cell-based; settings: read-out: function affinity with mFPR1 receptor
T3 sequence (P33766 1-364): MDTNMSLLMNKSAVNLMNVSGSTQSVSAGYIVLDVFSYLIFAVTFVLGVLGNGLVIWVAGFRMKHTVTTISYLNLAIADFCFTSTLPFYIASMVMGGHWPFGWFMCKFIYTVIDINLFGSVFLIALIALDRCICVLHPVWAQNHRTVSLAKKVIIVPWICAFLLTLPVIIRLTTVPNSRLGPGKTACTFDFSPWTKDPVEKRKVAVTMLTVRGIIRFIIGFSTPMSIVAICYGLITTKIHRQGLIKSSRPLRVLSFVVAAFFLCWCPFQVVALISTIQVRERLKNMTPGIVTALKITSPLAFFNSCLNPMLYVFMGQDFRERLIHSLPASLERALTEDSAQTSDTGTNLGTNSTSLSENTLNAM

human HL60 cell line [1] = assay: Flipr calcium flux assay using dHL60 cell line; assay type: cell-based; settings: HL-60; neutrophil like human HL60 cell line; read-out: potency for increase of cytosolic Ca2+ levels
Method: Flipr assay using dHL60 non-adherent cell line. HL60 cells were diluted to 1.5×10^5 cells/ml and were grown in culture medium containing 1.3% DMSO at 37C for 5 days. On day 6 cells were counted to make sure that cells viability was approx. 95%. The 1.2×10^7 cells were spin down and washed cells once with assay buffer. The supernatant was removed and cells were re-suspended in 12 ml buffer with fluo-4 AM loading dye and label cells at 37C for 30 min. Loading buffer: HBSS (invitrogen, cat 14075), 20 mM HEPES, 0.1% FAF-BSA, 15 ul of 0.025% pluronic F127 (Invitrogen, P3000 MP), 2.5 mM probenecid, 1.9 uM Fluo-4 AM (Invitrogen, F14201). After incubation cells were washed once with reaction buffer to remove the dye and were re-suspended at 1×10^6 cells/ml. Following wash, cells were plated in 100 ul/well in Poly-D-Lysine pre-coated 96 well assay plates. Assay plates were centrifuged at 1000 rpm for 10 min and then placed in the FLIPR to perform calcium flux assay.

human HL60 cell line [2] = assay: HL-60 cell migration assay agonist mode; assay type: cell-based; settings: read-out: potency for stimulation of chemotaxis by itself
Method: (§1) HL-60 cell culture and differentiation. The HL-60 cell line (ATCC, CCL-240, lot 60398411) was maintained in IMDM (Life Tech, cat 12440-053) medium supplemented with 20% fetal bovine serum, 50 U/ml penicillin, and 50 μg/ml streptomycin at 37° with 5% CO2. Cells were differentiated into the granulocyte lineage with DMSO; 2.5×10^5 cells/ml were incubated with 1.25% DMSO for 5 days.
Neutrophil and HL-60 cell migration assay agonist mode. After 5 day differentiation, cells were resuspended in phenol free RPMI (Invitrogen, cat 11835) with 0.2% fatty acid free BSA at a concentration of 3×10^7 cells/ml. The dHL-60 cells (10^5 in 100 μl) were added to the upper chamber of each HTS transwell-96well plate (Corning#3387). Migration was induced by placing chemoattractant in the bottom chamber and the dHL60 cells in the top chamber of the transwell plate. Cells were allowed to migrate for 120 min across the 5 micron filters at 37° with 5% CO2. Following migration, neutrophils or dHL-60 cells remaining in the transwell lower chamber (migrated fraction) were quantitated using the cell-titer-glo luminescence cell viability assay (Promega, G7571).

human HL60 cell line [3] = assay: HL-60 cell migration assay antagonist mode (SAA-induced chemotaxis); assay type: cell-based; settings: read-out: affinity for antagonism of chemotaxis induced by SAA
Method: as §1
Neutrophil and HL-60 cell migration assay antagonist mode. After 5 day differentiation, the cells were resuspended in phenol free RPMI (Invitrogen, cat 11835) with 0.2% fatty acid free BSA at a concentration of 3×10^7 cells/ml. The dHL-60 cells (10^5 in 100 μl) were pre-incubated for 15 minutes with varying concentrations of the […] at 37° with 5% CO2. Then 0.8uM of the recombinant serum amyloid A1 peptide (rSAA1, PeproTech, Cat#300-53) was added to the bottom chamber of each HTS transwell-96well plate (Coming#3387). Migration was induced by placing […] and the dHL60 cells mixture in the top chamber of the transwell plate. Cells were allowed to migrate for 120 min across the 5micron filters at 37° with 5% CO2. Following migration, neutrophils or dHL-60 cells remaining in the transwell lower chamber (migrated fraction) were quantitated using the cell-titer-glo luminescence cell viability assay (Promega, G7571).

[4] = test system: mouse bio-gel elicited peritoneal macrophages; assay: Enhancement of phagocytosis in bio-gel elicited peritoneal macrophages; assay type: cell-based
Method: Enhancement of phagocytosis. Macrophages were elicited to the peritoneum of five C57BL6 mice by peritoneal injection of 1 ml of 1% Biogel in PBS (−/−) 4 days prior to harvest. Peritoneal exudates are harvested, combined and then filtered to remove Biogel beads. First, through a 70 um cell strainer followed by successively filtering through two 40 um cell strainers. The exudate is diluted with 1× PBS (−/−) to 50 ml and centrifuged at 300× g for 10 minutes at 4° C. The cell pellet is gently resuspended in 20-30 ml 1× PBS(+/+) and cells are counted using the Nexelcom Cellometer counter. Cell concentration is adjusted to 1,250,000 cells/ml in 1× PBS (+/+). 100 ul (125 k) cells are placed into each well of a 96-well Costar 3904 plate. The plates are centrifuged at 150× g for 30 seconds to promote adherence. […] Fluorescence signal from non-ingested Zymosan particles is quenched with 150 ul ice-cold 1:15 diluted Trypan Blue solution for 2 minutes and then aspirated to remove. Lastly, the plate is read on a SpectraMAX Gemini EM fluorescence plate reader in 150 ul of 1:50 diluted Trypan Blue. Plate Reader Settings=Bottom Read: Excitation 493 nm: Emission 525 nm: Cutoff 515 nm: Automix Off: Calibrate On: PMT=Auto: Column Priority: Reads/Well=20.

mice [5] = assay: Permanent coronary artery occlusion myocardial infarction model; assay type: in vivo
Method: Animal models. Permanent coronary artery occlusion was carried out in mice using a ligature placed around the left anterior descending artery to induce myocardial infarction. […] Mice subjected to thoracotomy but not infarcted were included as surgical “sham” controls. Mice were evaluated 28 days following myocardial infarction to assess structure/function relationships. Hearts were removed from mice to evaluate the passive mechanics of the myocardium. To do this, ex vivo pressure-volume relationships of the left ventricle were measured via inflation and deflation cycles of a balloon placed within the left ventricle of the excised heart. Two-dimensional strains of the myocardial scar were also measured to determine the compliance of infarcted tissue. Hearts were also processed histologically to measure left ventricular dimensions, infarct areas and infarct collagen composition.

mice [6] = assay: Angiotensin II challenge myocardial fibrosis model; assay type: in vivo, mouse; settings: for decrease of left ventricular hydroxyproline content vs vehicle: p<0.05
Method: To assess myocardial fibrosis, mice were challenged with angiotensin II to stimulate cardiac hypertrophy and left ventricular collagen deposition. Mice were administered angiotensin II using subcutaneously implanted osmotic mini-pumps (˜2 mg/kg/day) A separate group of mice were implanted with subcutaneous pumps containing saline (surgical “sham” group); these mice served as control for pump implantation surgery. […] Treatments lasted for 2-3 weeks, depending on the exact study design. At the end of treatment phase, hearts were removed from animals and evaluated for collagen levels/fibrosis using a standard colorimetric assay for myocardial hydroxyproline or by cross-sectional histology of the hearts.
Myocardial fibrosis was evaluated in the mouse with continuous angiotensin II challenge administered by subcutaneous osmotic mini-pump.

[7] = mice, oral 1 and 10 mg/kg QD, stated for both models

`CC(C)c1c(NC(=O)Nc2ccc(Cl)cc2)c(=O)n(-c2ccccc2)n1C` [Compound 1, 1-(4-chlorophenyl)-3-(5-isopropyl-1-methyl-3-oxo-2-phenyl-2,3-dihydro-1H-pyrazol-4-yl)urea] was tested, and the pEC50 (mFPR2/ALX) was 7.70, the pEC50 (mFPR3) was < 5.00 and the pEC50 (mFPR1 receptor) was ~7.30. For the same compound, the pEC50 (human HL60 cell line [1]) was 7.30, the pEC50 (human HL60 cell line [2]) was 7.11 and the pIC50 (human HL60 cell line [3]) was 6.72. For the same compound, the “enhancement of phagocytosis of fluorescently labeled zymosan vs untreated control cells” value ([4]; compound in picomolar range, depending on experimental conditions) was 250 to 60%, the “enhancement of phagocytosis in knockout macrophages” value ([4]; macrophages from single mFPR2 and mFPR3 or double mFPR2/FPR3 knockout mice) was “no such enhancement” and the “reduction of infarct area (as % of left ventricle area) vs vehicle” value (mice [5]; 1 mg/kg, histology, p<0.05) was 44%. The “reduction of left ventricular chamber area vs vehicle (histology)” value (mice [5]; 1 mg/kg, p<0.05) was 28%, the “reduction of infarct area (as % of left ventricle area) vs vehicle” value (mice [5]; 10 mg/kg, histology, p<0.05) was 49% and the “reduction of left ventricular chamber area vs vehicle (histology)” value (mice [5]; 10 mg/kg, p<0.05) was 30%. The “ex vivo left ventricle pressure-volume curves” value (mice [5]; 28 days post MI, 1 and 10 mg/kg QD oral) was “left shifted in a dose-dependent manner”, the “pressure-volume slopes (myocardial stiffness)” value (mice [5]; 28 days post MI, ex vivo) was “greater than vehicle and similar to normal sham control mice” and the two-dimensional scar strains (mice [5]; 28 days post MI, ex vivo) was “reduced circumferential and longitudinal strains relative to vehicle treatment”. The overall mortality (mice [5]; high dose) was “decrease in overall mortality”, the “increased anterior left ventricular wall thickness at site of infarction vs vehicle” value (mice [5]; histology, p<0.05) was 45-65% and the “tolerability throughout the in-life phase” value (mice [5]; [7]) was “well tolerated”. The “untoward effects on the physiology of the mice” value (mice [5]; [7]) was “no untoward effects”, the “decrease of left ventricular hydroxyproline content vs vehicle” value (mice [6]; 1 mg/kg, pre-treatment 24 h before angiotensin II, 2 weeks) was 83% and the “decrease of left ventricular hydroxyproline content vs vehicle” value (mice [6]; 10 mg/kg, pre-treatment 24 h before angiotensin II, 2 weeks) was 75%. The “interstitial collagen by histology of the left ventricle” value (mice [6]; pre-treatment 24 h before angiotensin II, 2 weeks) was “Comparable reductions”, the “hydroxyproline content and interstitial collagen levels by histology” value (mice [6]; treatment given at the time of angiotensin II challenge) was “comparable reductions” and the “reduction of interstitial fibrosis in the left ventricle vs vehicle” value (mice [6]; treatment started after 3 days of angiotensin II, 2.5 weeks, histology, p<0.001) was ~74%.
